Laboratory results reported in patent US11325899B2, “Benzofurane and benzothiophene derivatives as PGE2 receptor modulators” (IDORSIA PHARMACEUTICALS LTD, priority 2017, dated 2022).

How the values were obtained:
PTGER4 (EP4) = molecular target: T1, PTGER4 (EP4) (Homo sapiens, UniProt P35408); experiment: hEP4 b-arrestin assay (PathHunter HEK 293 PTGER4 b-arrestin cells); format: cell-based; settings: antagonistic activity, beta-arrestin assay; read-out: hEP4 b-arr IC50
T1 construct: host or cells: HEK 293 (PathHunter PTGER4 b-arrestin cell line)
Outline: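 β-Arrestin recruitment to EP4 was read as enzyme-fragment-complementation chemiluminescence in stably transfected HEK 293 cells. After 15 min compound preincubation at 37 °C (ranges 10 μM–2 nM or 1 μM–0.2 nM), cells were stimulated 120 min with PGE2 at 20 nM, its EC80. IC50 values were fitted from duplicates, with repeat measurements averaged.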

EP4 receptor = molecular target: T2, EP4 receptor (Homo sapiens, UniProt P35408); experiment: hEP4 cAMP assay (BT549 breast cancer cells, HTRF cAMP, PGE2 stimulation); format: cell-based; settings: antagonistic activity, PGE2 6 nM (EC80)
T2 construct: BT549 breast cancer cells, express high endogenous EP4 levels and very low EP2 levels; host or cells: BT549 breast cancer cells
Outline: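 BT549 cells, with endogenous EP4 and very low EP2, were preincubated 45 min at room temperature with compound in HBSS/HEPES/BSA buffer with 2 mM IBMX. They were then stimulated 30 min with 6 nM PGE2 (EC80). cAMP was measured by HTRF competitive immunoassay against a calibrator; IC50 from duplicate dose-response as % of DMSO control.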

T1 sequence (P35408 whole entry): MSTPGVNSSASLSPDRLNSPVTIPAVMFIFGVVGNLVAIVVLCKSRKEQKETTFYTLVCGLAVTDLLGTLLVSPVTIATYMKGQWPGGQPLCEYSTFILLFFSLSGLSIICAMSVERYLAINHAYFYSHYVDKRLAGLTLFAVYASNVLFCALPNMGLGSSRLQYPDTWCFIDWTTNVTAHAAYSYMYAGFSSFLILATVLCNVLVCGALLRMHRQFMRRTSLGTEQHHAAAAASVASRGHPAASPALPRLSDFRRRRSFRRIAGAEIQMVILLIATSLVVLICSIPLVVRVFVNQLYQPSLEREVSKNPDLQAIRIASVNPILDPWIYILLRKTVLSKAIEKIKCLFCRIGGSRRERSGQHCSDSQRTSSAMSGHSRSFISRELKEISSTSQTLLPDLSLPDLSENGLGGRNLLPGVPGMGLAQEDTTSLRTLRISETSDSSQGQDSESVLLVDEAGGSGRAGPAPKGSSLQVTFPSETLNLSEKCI
T2 sequence (P35408 whole entry): as above

Row | IC50 (PTGER4 (EP4)) [µM] | IC50 (EP4 receptor) [µM] | SMILES
1 | 0.019 | 0.012 | CCOc1cc(-c2cc(NCCc3c(C#N)sc4c(C)cc(F)cc34)ncn2)ccc1OCCC(=O)O [Example 176, 3-(4-{6-[2-(2-Cyano-5-fluoro-7-methyl-benzo[b]thiophen-3-yl)-ethylamino]-pyrimidin-4-yl}-2-ethoxy-phenoxy)-propionic acid]
2 | 0.041 | 0.105 | CCOc1cc(-c2cc(NCCc3c(C)sc4c(C)cc(F)cc34)ncn2)ccc1-c1nnn[nH]1 [Example 142, {6-[3-Ethoxy-4-(1H-tetrazol-5-yl)-phenyl]-pyrimidin-4-yl}-[2-(5-fluoro-2,7-dimethyl-benzo[b]thiophen-3-yl)-ethyl]-amine]
3 | 0.166 | 0.07 | Cc1cc(F)cc2c(CCNc3cc(-c4ccc(C(=O)O)c(OC(C)C)c4)ncn3)c(C#N)sc12 [Example 172, 4-{6-[2-(2-Cyano-5-fluoro-7-methyl-benzo[b]thiophen-3-yl)-ethylamino]-pyrimidin-4-yl}-2-isopropoxy-benzoic acid]
4 | 0.063 | 0.115 | CCOc1cc(-c2cc(NCCc3c(C)sc4c(C)cc(F)cc34)ncn2)ccc1OCCC(=O)O [Example 143, 3-(2-Ethoxy-4-{6-[2-(5-fluoro-2,7-dimethyl-benzo[b]thiophen-3-yl)-ethylamino]-pyrimidin-4-yl}-phenoxy)-propionic acid]
5 | 0.405 | 0.29 | CCOc1cc(-c2cc(NCCc3c(C)sc4c(C)cccc34)ncn2)ccc1CC(=O)O [Example 109, (4-{6-[2-(2,7-Dimethyl-benzo[b]thiophen-3-yl)-ethylamino]-pyrimidin-4-yl}-2-ethoxy-phenyl)-acetic acid]
6 | 0.157 | 0.827 | COc1ccc(Cl)c2c(CCNc3cc(-c4ccc(C(=O)O)c(OC5CCCC5)c4)ncn3)c(C)sc12 [Example 153, 4-{6-[2-(4-Chloro-7-methoxy-2-methyl-benzo[b]thiophen-3-yl)-ethylamino]-pyrimidin-4-yl}-2-cyclopentyloxy-benzoic acid]
7 | 0.297 | 0.223 | COc1ccc(Cl)c2c(CCNc3cc(-c4ccc(C(=O)O)c(OC(F)F)c4)ncn3)c(C)sc12 [Example 116, 4-{6-[2-(4-Chloro-7-methoxy-2-methyl-benzo[b]thiophen-3-yl)-ethylamino]-pyrimidin-4-yl}-2-difluoromethoxy-benzoic acid]
8 | 0.016 | 0.018 | CCOc1nc(-c2cc(NCCc3c(C)sc4c(C)cc(F)cc34)ncn2)sc1C(=O)O [Example 160, 4-Ethoxy-2-{6-[2-(5-fluoro-2,7-dimethyl-benzo[b]thiophen-3-yl)-ethylamino]-pyrimidin-4-yl}-thiazole-5-carboxylic acid]
9 | 0.005 | 0.051 | CCOc1nc(-c2cc(NCCc3c(C)sc4c(C)cc(F)cc34)ncn2)sc1-c1noc(=O)[nH]1 [Example 162, 3-(4-Ethoxy-2-{6-[2-(5-fluoro-2,7-dimethyl-benzo[b]thiophen-3-yl)-ethylamino]-pyrimidin-4-yl}-thiazol-5-yl)-[1,2,4]oxadiazol-5(4H)-one [tautomeric form: 3-(4-ethoxy-2-(6-((2-(5-fluoro-2,7-dimethylbenzo[b]thiophen-3-yl)ethyl)amino)pyrimidin-4-yl)thiazol-5-yl)-[1,2,4]oxadiazol-5-ol]]
10 | 0.023 | 0.054 | CCOc1cc(-c2cc(NCCc3c(C)sc4c(OC)ccc(F)c34)ncn2)ccc1OCC(=O)O [Example 117, (2-Ethoxy-4-{6-[2-(4-fluoro-7-methoxy-2-methyl-benzo[b]thiophen-3-yl)-ethylamino]-pyrimidin-4-yl}-phenoxy)-acetic acid]

Continued, molecule first:

Row | SMILES | IC50 (PTGER4 (EP4)) [µM] | IC50 (EP4 receptor) [µM]
11 | CCCOc1cc(-c2cc(NCCc3c(C)sc4c(C)cc(F)cc34)ncn2)ccc1C(=O)O [Example 100, 4-{6-[2-(5-Fluoro-2,7-dimethyl-benzo[b]thiophen-3-yl)-ethylamino]-pyrimidin-4-yl}-2-propoxy-benzoic acid] | 0.299 | 0.457
12 | Cc1sc2c(C)ccc(F)c2c1CCNc1cc(-c2ccc(C(=O)O)c(OC3CCC3)c2)ncn1 [Example 136, 2-Cyclobutoxy-4-{6-[2-(4-fluoro-2,7-dimethyl-benzo[b]thiophen-3-yl)-ethylamino]-pyrimidin-4-yl}-benzoic acid] | 0.155 | 0.411
13 | CCOc1cc(-c2cc(NCCc3c(C)sc4c(C)ccc(F)c34)ncn2)cc(C)c1C(=O)O [Example 103, 2-Ethoxy-4-{6-[2-(4-fluoro-2,7-dimethyl-benzo[b]thiophen-3-yl)-ethylamino]-pyrimidin-4-yl}-6-methyl-benzoic acid] | 0.521 | 0.331
14 | CCc1oc2c(C)cc(F)cc2c1CCNc1cc(-c2cc(C)c(C(=O)O)s2)ncn1 [Example 7, 5-{6-[2-(2-Ethyl-5-fluoro-7-methyl-benzofuran-3-yl)-ethylamino]-pyrimidin-4-yl}-3-methyl-thiophene-2-carboxylic acid] | 0.577 | 0.624
15 | Cc1sc2c(C)cccc2c1CCNc1cc(-c2ccc(C(=O)O)cc2)ncn1 [Example 8, 4-{6-[2-(2,7-Dimethyl-benzo[b]thiophen-3-yl)-ethylamino]-pyrimidin-4-yl}-benzoic acid] | 1.17 | 0.369
16 | COc1ccc(F)c2c(CCNc3cc(-c4ccc(C(=O)O)c(OC5CCC5)c4)ncn3)c(C)oc12 [Example 139, 2-Cyclobutoxy-4-{6-[2-(4-fluoro-7-methoxy-2-methyl-benzofuran-3-yl)-ethylamino]-pyrimidin-4-yl}-benzoic acid] | 0.209 | 0.481
17 | Cc1sc2c(C)cc(F)cc2c1CCNc1cc(-c2ccc(C(=O)O)c(OC3CCC3)c2)ncn1 [Example 138, 2-Cyclobutoxy-4-{6-[2-(5-fluoro-2,7-dimethyl-benzo[b]thiophen-3-yl)-ethylamino]-pyrimidin-4-yl}-benzoic acid] | 0.269 | 0.478
18 | Cc1sc2c(C)cc(F)cc2c1CCNc1cc(-c2ccc(C(=O)O)c(OCC(C)C)c2)ncn1 [Example 184, 4-{6-[2-(5-Fluoro-2,7-dimethyl-benzo[b]thiophen-3-yl)-ethylamino]-pyrimidin-4-yl}-2-isobutoxy-benzoic acid] | 0.311 | 0.553
19 | Cc1oc2c(C)cc(F)cc2c1CCNc1cc(-c2ccc(C(=O)O)c(OC3CCC3)c2)ncn1 [Example 140, 2-Cyclobutoxy-4-{6-[2-(5-fluoro-2,7-dimethyl-benzofuran-3-yl)-ethylamino]-pyrimidin-4-yl}-benzoic acid] | 1.42 | 0.58
20 | CCCCOc1cc(-c2cc(NCCc3c(C)sc4c(C)cc(F)cc34)ncn2)cc(F)c1C(=O)O [Example 144, 2-Butoxy-6-fluoro-4-{6-[2-(5-fluoro-2,7-dimethyl-benzo[b]thiophen-3-yl)-ethylamino]-pyrimidin-4-yl}-benzoic acid] | 0.092 | 0.112
21 | COc1ccc(F)c2c(CCNc3cc(-c4cc(F)c(C(=O)O)c(OC5CCC5)c4)ncn3)c(C)sc12 [Example 149, 2-Cyclobutoxy-6-fluoro-4-{6-[2-(4-fluoro-7-methoxy-2-methyl-benzo[b]thiophen-3-yl)-ethylamino]-pyrimidin-4-yl}-benzoic acid] | 0.067 | 0.241
